Patent US7148026B2, “Dog melanin-concentrating hormone receptor” (Merck & Co., Inc., priority 2000, dated 2006)
pEC50: −log10 of the molar value.

System: dog MCH receptor
Assay: Aequorin bioluminescence assay in 293-AEQ17 cells transfected with dog MCH receptor
Format: cell-based
Conditions: 293-AEQ17 cells transfected with dog MCH receptor plasmid; fractional response of aequorin luminescence; read-out: EC50 value for activation of the dog MCH receptor
Protocol: Measurement of MCH receptor expression in the aequorin-expressing stable reporter cell line 293-AEQ17 (Button et al., 1993, Cell Calcium, 14, 663–671) was performed using a Luminoskan RT luminometer (Labsystems Inc., Gaithersburg, Md.) controlled by custom software written for a Macintosh PowerPC 6100. 293-AEQ17 cells (8×10^5 cells plated 18 hours before transfection in a T75 flask) were transfected with 22 μg of dog MCH receptor plasmid DNA: 264 μg lipofectamine.
Following approximately 40 hours of expression the apo-aequorin in the cells was charged for 4 hours with coelenterazine (10 μM) under reducing conditions (300 μM reduced glutathione) in ECB buffer (140 mM NaCl, 20 mM KCl, 20 mM HEPES-NaOH [pH=7.4], 5 mM glucose, 1 mM MgCl2, 1 mM CaCl2, 0.1 mg/ml bovine serum albumin). […] 100 μl of cell suspension (corresponding to 5×10^4 cells) was then injected into the test plate containing MCH, and the integrated light emission was recorded over 30 seconds, in 0.5 second units. 20 μL of lysis buffer (0.1% final Triton X-100 concentration) was then injected and the integrated light emission recorded over 10 seconds, in 0.5 second units.
The “fractional response” values for each well were calculated by taking the ratio of the integrated response to the initial challenge to the total integrated luminescence including the Triton X-100 lysis response. […]

Chain of dog MCH receptor (as listed by the source): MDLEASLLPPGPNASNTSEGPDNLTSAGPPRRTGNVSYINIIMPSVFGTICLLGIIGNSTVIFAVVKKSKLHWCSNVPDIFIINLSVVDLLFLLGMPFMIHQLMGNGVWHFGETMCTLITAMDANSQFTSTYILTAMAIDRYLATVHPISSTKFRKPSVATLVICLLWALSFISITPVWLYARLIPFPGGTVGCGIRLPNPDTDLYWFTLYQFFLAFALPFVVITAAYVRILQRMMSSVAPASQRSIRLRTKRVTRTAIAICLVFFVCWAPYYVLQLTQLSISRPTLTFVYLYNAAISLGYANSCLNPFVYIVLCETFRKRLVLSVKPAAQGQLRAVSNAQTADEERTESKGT

pEC50: ~7.52
Substance: Melanin-concentrating hormone [MCH]
